Laboratory results from US20060167020A1, “Pyrazolopyrimidines as kinase inhibitors” (priority 2002, published 2006).
Structures can show the parent of a compound that is named as a salt.

Target: GSK-3β (Homo sapiens, UniProt P49841)
Assay: GSK3 kinase scintillation proximity assay (phosphorylation of biotinylated glycogen synthase peptide)
Format: biochemical
Conditions: 20 nM kinase, 2.5 uM ATP, 2.8 uM peptide substrate, 40 minutes at room temperature; pIC50 = -log IC50 in Molar
Source text: The phosphorylated biotinylated peptide is then captured onto streptavidin coated scintillation proximity assay (SPA) beads from Amersham Technology, where the signal from the ^33P is amplified via the scintillant contained in the beads.
GSK-3β is commercially available or may be cloned and expressed in E coli using standard techniques to produce soluble, active protein. The production of active protein involves purification in two steps using Metal Chelate and Ion Exchange Chromatography. Protein eluting from Ion Exchange provides >90% pure product that may then be concentrated for use in high throughput screening.
The kinase was assayed at a concentration of 20 nM final in 100 mM HEPES, pH 7.2 containing 10 mM magnesium chloride, 0.1 mg/mL bovine serum albumin, 1 mM dithiothreitol, 0.3 mg/mL heparin, 2.8 uM peptide substrate, 2.5 uM ATP, and 0.2 uCi/well γ^33P]-ATP. After 40 minutes incubation at room temperature, the reaction was stopped by addition of 100 mM EDTA and […] in 100 mM HEPES, pH7.2 followed by an additional solution of diluted Streptavidin coated SPA beads in PBS, pH 7.2 to give a final concentration of 0.25 mg of beads per assay well in a 96-well microtiter plate.
10 mM stock solutions of the compounds of the invention in 100% DMSO are generated as a first step in the screening process. The second step involves the creation of dose response plates where these compounds are diluted 10-fold in 100% DMSO to 1 mM concentrations and subsequently serially diluted 3-fold in 100% DMSO across the plate by automated liquid handling such that the final top concentration of inhibitor is 0.033 mM in the 30 uL kinase assay. The third step involves the creation of the assay plates. This is achieved by transferring 1 uL of the compounds to assay plates by automated liquid handling. The fourth step is to perform the assay as described and count the resulting plates in the Packard TopCount NXT microplate scintillation and luminescence counter.
The final step is data acquisition and analysis where IC50 values are generated for each compound by normalizing curve data to the equation 100*(U1−C2)/(C1−C2) (where U1 is the cpm value, C2 is the background, and C1 is the maximum number of counts), then fitting the normalized data to the equation y=Vmax*(1−(x/(K+x))). The IC50 values were converted to pIC50 values, i.e., −log IC50 in Molar concentration. The data is expressed below in Table 1.

Sequence of GSK-3β (P49841 whole entry, species assumed): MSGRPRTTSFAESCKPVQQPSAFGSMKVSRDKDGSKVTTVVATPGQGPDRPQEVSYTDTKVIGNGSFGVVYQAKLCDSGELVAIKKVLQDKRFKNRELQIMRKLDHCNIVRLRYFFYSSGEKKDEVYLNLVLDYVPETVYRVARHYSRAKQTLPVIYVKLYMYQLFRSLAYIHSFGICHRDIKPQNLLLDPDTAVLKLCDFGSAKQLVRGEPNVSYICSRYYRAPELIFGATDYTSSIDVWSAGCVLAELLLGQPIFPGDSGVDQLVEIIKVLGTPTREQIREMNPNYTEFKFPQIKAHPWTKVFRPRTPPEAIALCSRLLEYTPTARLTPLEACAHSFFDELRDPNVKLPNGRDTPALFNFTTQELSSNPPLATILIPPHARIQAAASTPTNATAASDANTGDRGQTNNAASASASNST

| SMILES | IC50 |
| --- | --- |
| COc1cccc(-n2ncc3c(N/N=C/c4ccncc4)ncnc32)n1 [Example 1, Isonicotinaldehyde [1-(6-methoxypyridin-2-yl)-1H-pyrazolo[3,4-d]pyrimidin-4-yl]hydrazone] | < 100 nM |
| COc1cccc(-n2ncc3c(N/N=C/c4cccnc4)ncnc32)n1 [Example 2, Nicotinaldehyde [1-(6-methoxypyridin-2-yl)-1H-pyrazolo[3,4-d]pyrimidin-4-yl]hydrazone] | < 100 nM |
| COc1cccc(-n2ncc3c(N/N=C/c4ccc(N(C)C)nc4)ncnc32)n1 [Example 3, 6-(Dimethylamino)nicotinaldehyde [1-(6-methoxypyridin-2-yl)-1H-pyrazolo[3,4-d]pyrimidin-4-yl]hydrazone] | 100 to 1000 nM |
| COc1cccc(-n2ncc3c(N/N=C/c4ccnc(Cl)c4)ncnc32)n1 [Example 4, 2-Chloroisonicotin aldehyde [1-(6-methoxypyridin-2-yl)-1H-pyrazolo[3,4-d]pyrimidin-4-yl]hydrazone] | 100 to 1000 nM |
| COc1cccc(-n2ncc3c(N/N=C/c4ccc(Cl)nc4)ncnc32)n1 [Example 5, 6-Chloronicotinaldehyde [1-(6-methoxypyridin-2-yl)-1H-pyrazolo[3,4-d]pyrimidin-4-yl]hydrazone] | < 100 nM |
| COc1cccc(-n2ncc3c(N/N=C/c4ccc(S(=O)(=O)NCCN(C)C)cc4)ncnc32)n1 [Example 6, N-[2-(Dimethylamino)ethyl]-4-((E)-{[1-(6-methoxypyridin-2-yl)-1H-pyrazolo[3,4-d]pyrimidin-4-yl]hydrazono}methyl)benzenesulfonamide] | < 100 nM |
| COc1cccc(-n2ncc3c(N/N=C/c4ccc(S(=O)(=O)NCCN5CCOCC5)cc4)ncnc32)n1 [Example 7, 4-((E)-{[1-(6-methoxypyridin-2-yl)-1H-pyrazolo[3,4-]pyrimidin-4-yl]hydrazono}methyl)-N-(2-morpholin-4-ylethyl)benzenesulfonamide] | < 100 nM |
| COc1cccc(-n2ncc3c(N/N=C/c4ccc(C(=O)O)cc4)ncnc32)n1 [Example 8] | 100 to 1000 nM |
| COc1cccc(-n2ncc3c(N/N=C/c4ccc(C(=O)NCCS(C)(=O)=O)cc4)ncnc32)n1 [Example 9, 4-((E)-{[1-(6-methoxypyridin-2-yl)-1H-pyrazolo[3,4-d]pyrimidin-4-yl]hydrazono}methyl)-N-[2-(methylsulfonyl)ethyl]benzamide] | < 100 nM |
| COc1cccc(-n2ncc3c(N/N=C/c4ccc(C(=O)NCCN(C)C)cc4)ncnc32)n1 [Example 10, N[2-(Dimethylamino)ethyl]-4-((E)-{[1-(6-methoxypyridin-2-yl)-1H-pyrazolo[3,4-d]pyrimidin-4-yl]hydrazono}methyl)benzamide] | < 100 nM |
| COc1cccc(-n2ncc3c(N/N=C/c4ccc(C(=O)NCCCN(C)C)cc4)ncnc32)n1 [Example 11, N-[3-(Dimethylamino)propyl]-4-((E)-{[1-(6-methoxypyridin-2-yl)-1H-pyrazolo[3,4-a]pyrimidin-4-yl]hydrazono}methyl)benzamide] | < 100 nM |
| COc1cccc(-n2ncc3c(N/N=C/c4ccc(C(=O)NCCCN5CCCC5)cc4)ncnc32)n1 [Example 12, 4-((E)-{[1-(6-methoxypyridin-2-yl)-1H-pyrazolo[3,4-d]pyrimidin-4-yl]hydrazono}methyl)-N-(3-pyrrolidin-1-ylpropyl)benzamide] | < 100 nM |
| C(=N\Nc1ncnc2c1cnn2-c1ccccn1)/c1cccnc1 [Example 13, Nicotinaldehyde (1-pyridin-2-yl-1H-pyrazolo[3,4-d]pyrimidin-4-yl)hydrazone] | 100 to 1000 nM |
| C(=N\Nc1ncnc2c1cnn2-c1ccccn1)/c1ccncc1 [Example 14, Isonicotinaldehyde (1-pyridin-2-yl-1H-pyrazolo[3,4-d]pyrimidin-4-yl)hydrazone] | 1000 to 10000 nM |
| CC(C)(C)OC(=O)N1CCC(/C=N/Nc2ncnc3c2cnn3-c2ccccn2)CC1 [Example 15, tert-Butyl 4-{(E)-[(1-pyridin-2-yl-1H-pyrazolo[3,4-d]pyrimidin-4-yl)hydrazono]methyl}piperidine-1-carboxylate] | 1000 to 10000 nM |
| Nc1ccc(/C=N/Nc2ncnc3c2cnn3-c2ccccn2)cn1 [Example 17, 6-Aminonicotinaldehyde (1-pyridin-2-yl-1H-pyrazolo[3,4-d]pyrimidin-4-yl)hydrazone trifluoroacetate] | 1000 to 10000 nM |

| SMILES | IC50 |
| --- | --- |
| CN(C)c1ccc(/C=N/Nc2ncnc3c2cnn3-c2ccccn2)cn1 [Example 18, 6-(Dimethylamino)nicotinaldehyde (1-pyridin-2-yl-1H-pyrazolo[3,4-d]pyrimidin-4-yl)hydrazone] | 1000 to 10000 nM |
| CN(C)CCNS(=O)(=O)c1ccc(/C=N/Nc2ncnc3c2cnn3-c2ccccn2)cc1 [Example 19, N-[2-(Dimethylamino)ethyl]-4-{(E)-[(1-pyridin-2-yl-1H-pyrazolo[3,4-d]pyrimidin-4-yl)hydrazono]methyl}benzenesulfonamide] | 100 to 1000 nM |
| O=C(O)c1ccc(/C=N/Nc2ncnc3c2cnn3-c2ccccn2)cc1 [Example 20, 4-{(E)-[(1-pyridin-2-yl-1H-pyrazolo[3,4-d]pyrimidin-4-yl)hydrazono]methyl}benzoic acid] | 1000 to 10000 nM |
| CN(C)CCNC(=O)c1ccc(/C=N/Nc2ncnc3c2cnn3-c2ccccn2)cc1 [Example 21, N-[2-(Dimethylamino)ethyl]-4-{(E)-[(1-pyridin-2-yl-1H-pyrazolo[3,4-d]pyrimidin-4-yl)hydrazono]methyl}benzamide hydrochloride] | 100 to 1000 nM |
| CS(=O)(=O)CCNC(=O)c1ccc(/C=N/Nc2ncnc3c2cnn3-c2ccccn2)cc1 [Example 22, N-[2-(Methylsulfonyl)ethyl]-4-{(E)-[(1-pyridin-2-yl-1H-pyrazolo[3,4-d]pyrimidin-4-yl)hydrazono]methyl}benzamide] | 100 to 1000 nM |
| C(=NNc1ncnc2c1cnn2-c1nccs1)c1cccnc1 [Example 23, Nicotinaldehyde [1-(1,3-thiazol-2-yl)-1H-pyrazolo[3,4-d]pyrimidin-4-yl]hydrazone] | 100 to 1000 nM |
| C(=NNc1ncnc2c1cnn2-c1nccs1)c1ccncc1 [Example 24, Isonicotinaldehyde [1-(1,3-thiazol-2-yl)-1H-pyrazolo[3,4-d]pyrimidin-4-yl]hydrazone] | < 100 nM |
| CN(C)CCNS(=O)(=O)c1ccc(/C=N/Nc2ncnc3c2cnn3-c2nccs2)cc1 [Example 25, N-[2-(Dimethylamino)ethyl]-4-((E)-{[1-(1,3-thiazol-2-yl)-1H-pyrazolo[3,4-a]pyrimidin-4-yl]hydrazonol}methyl)benzenesulfonamide] | < 100 nM |
| C(=N\Nc1ncnc2c1cnn2-c1ccncc1)/c1ccncc1 [Example 26, Isonicotinaldehyde (1-pyridin-4-yl-1H-pyrazolo[3,4-d]pyrimidin-4-yl)hydrazone] | < 100 nM |
| C(=NNc1ncnc2c1cnn2-c1cccc2[nH]cnc12)c1ccncc1 [Example 28, Isonicotinaldehyde [1-(1H-benzimidazol-4-yl)-1H-pyrazolo[3,4-d]pyrimidin-4-yl]hydrazone] | < 100 nM |
| Fc1ccc(/C=N/Nc2ncnc3c2cnn3-c2cccc3[nH]cnc23)cc1 [Example 29, 4-Fluorobenzaldehyde [1-(1H-benzimidazol-4-yl)-1H-pyrazolo[3,4-d]pyrimidin-4-yl]hydrazone] | < 100 nM |
| CS(=O)(=O)c1ccc(/C=N/Nc2ncnc3c2cnn3-c2cccc3[nH]cnc23)cc1 [Example 30, 4-(Methylsulfonyl)benzaldehyde [1-(1H-benzimidazol-4-yl)-1H-pyrazolo[3,4-d]pyrimidin-4-yl]hydrazone] | < 100 nM |
| O=C(O)c1ccc(/C=N/Nc2ncnc3c2cnn3-c2cccc3[nH]cnc23)cc1 [Example 31, 4-((E)-{[1-(1H-benzimidazol-4-yl)-1H-pyrazolo[3,4-d]pyrimidin-4-yl]hydrazono}methyl)benzoic acid] | < 100 nM |
| CN(C)CCCNC(=O)c1ccc(/C=N/Nc2ncnc3c2cnn3-c2cccc3[nH]cnc23)cc1 [Example 32, 4-((E)-{[1-(1H-benzimidazol-4-yl)-1H-pyrazolo[3,4-d]pyrimidin-4-yl]hydrazono}methyl)-N-[3-(dimethylamino)propyl]benzamide] | < 100 nM |
| Fc1ccc(/C=N/Nc2ncnc3c2cnn3-c2cccnc2)cc1 [Example 33, 4-Fluorobenzaldehyde (1-pyridin-3-yl-1H-pyrazolo[3,4-d]pyrimidin-4-yl)hydrazone] | < 100 nM |
